Measured values reported in US8569298B2, “Pyridine compounds” (Astrazeneca AB, priority 2008, dated 2013).

Target: T1, FAK enzyme (6 His tagged kinase domain, GenBank NP—722560) (Homo sapiens, UniProt Q05397)
T1 construct: 6 His; made in house; host or cells: insect cell culture infected with baculovirus
Experiment: In vitro enzyme assay (a): sandwich ELISA of FAK tyrosine kinase activity on polyGAT peptide, TMB colorimetric endpoint
Assay type: biochemical
Settings: in vitro Enzyme Assay test (a); ATP at Km; geometric mean of n > 1 measurements, values marked * tested once
Outline: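 Recombinant His-tagged FAK kinase domain (baculovirus/insect cells) phosphorylated plate-coated polyGAT with ATP at Km, MgCl2/MnCl2, HEPES pH 7.4, 25 min at room temperature before EDTA stop. Phosphotyrosine detected by HRP-4G10 antibody and TMB absorbance at 450 nm; IC50 from 12-point curve anchored to DMSO and staurosporine controls.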

T1 sequence (Q05397 422-680 limits assumed): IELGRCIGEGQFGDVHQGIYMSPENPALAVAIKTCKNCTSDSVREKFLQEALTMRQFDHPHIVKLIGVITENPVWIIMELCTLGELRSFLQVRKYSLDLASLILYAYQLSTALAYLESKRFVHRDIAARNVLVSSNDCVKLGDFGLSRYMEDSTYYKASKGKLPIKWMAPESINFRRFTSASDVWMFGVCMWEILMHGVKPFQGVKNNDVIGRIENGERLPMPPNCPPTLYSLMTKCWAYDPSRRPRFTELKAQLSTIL

| IC50 | Structure (SMILES) |
| --- | --- |
| 171 nM | CNC(=O)c1ccccc1Nc1cc(Nc2cn(C)nc2C(=O)NC)ncc1C(F)(F)F [Example 12.07, N,1-dimethyl-4-[[4-[[2-(methylcarbamoyl)phenyl]amino]-5-(trifluoromethyl)-2-pyridyl]amino]pyrazole-3-carboxamide] |
| 482 nM | CNC(=O)c1ccccc1Nc1cc(Nc2cn(C)nc2C(=O)N(C)C)ncc1C(F)(F)F [Example 12.08, N,N,1-trimethyl-4-[[4-[[2-(methylcarbamoyl)phenyl]amino]-5-(trifluoromethyl)-2-pyridyl]amino]pyrazole-3-carboxamide] |
| 3 nM | CNC(=O)c1ccccc1Nc1cc(Nc2c[nH]nc2C)ncc1C(F)(F)F [Example 12.09, N-methyl-2-[[2-[(3-methyl-1H-pyrazol-4-yl)amino]-5-(trifluoromethyl)-4-pyridyl]amino]benzamide] |
| 10 nM | CNC(=O)c1ccccc1Nc1cc(Nc2cn(C)nc2COC)ncc1C(F)(F)F [Example 12.10, 2-[[2-[[3-(methoxymethyl)-1-methyl-pyrazol-4-yl]amino]-5-(trifluoromethyl)-4-pyridyl]amino]-N-methyl-benzamide] |
| 15 nM | CNC(=O)c1ccccc1Nc1cc(Nc2cn(C)nc2C#N)ncc1C(F)(F)F [Example 12.11, 2-[[2-[(3-cyano-1-methyl-pyrazol-4-yl)amino]-5-(trifluoromethyl)-4-pyridyl]amino]-N-methyl-benzamide] |
| 3 nM | CNC(=O)c1ccccc1Nc1cc(Nc2cn(C)nc2OC)ncc1C(F)(F)F [Example 12.12, 2-[[2-[(3-methoxy-1-methyl-pyrazol-4-yl)amino]-5-(trifluoromethyl)-4-pyridyl]amino]-N-methyl-benzamide] |
| 13 nM | Cc1nn(C(C)C)cc1Nc1cc(Nc2cccc3c2C(=O)N(C)CC3)c(Cl)cn1 [Example 13.01, 8-[[5-chloro-2-[(1-isopropyl-3-methyl-pyrazol-4-yl)amino]-4-pyridyl]amino]-2-methyl-3,4-dihydroisoquinolin-1-one] |
| 21 nM | CNC(=O)c1ccccc1Nc1cc(Nc2cn(C(C)C)nc2C)ncc1C(F)(F)F [Example 13.02, 2-[[2-[(1-isopropyl-3-methyl-pyrazol-4-yl)amino]-5-(trifluoromethyl)-4-pyridyl]amino]-N-methyl-benzamide] |
| 50 nM | CNC(=O)c1ccccc1Nc1cc(Nc2cn(C(F)F)nc2C)ncc1C(F)(F)F [Example 13.03, 2-[[2-[[1-(difluoromethyl)-3-methyl-pyrazol-4-yl]amino]-5-(trifluoromethyl)-4-pyridyl]amino]-N-methyl-benzamide] |
| 23 nM | Cc1nn(C(F)F)cc1Nc1cc(Nc2cccc3c2C(=O)N(C)CC3)c(Cl)cn1 [Example 13.04, 8-[[5-chloro-2-[[1-(difluoromethyl)-3-methyl-pyrazol-4-yl]amino]-4-pyridyl]amino]-2-methyl-3,4-dihydroisoquinolin-1-one] |
| 4 nM | Cc1nn(CCO)cc1Nc1cc(Nc2cccc3c2C(=O)N(C)CC3)c(Cl)cn1 [Example 13.05, 8-[[5-chloro-2-[[1-(2-hydroxyethyl)-3-methyl-pyrazol-4-yl]amino]-4-pyridyl]amino]-2-methyl-3,4-dihydroisoquinolin-1-one] |
| 6 nM | CNC(=O)c1ccccc1Nc1cc(Nc2cn(CCO)nc2C)ncc1C(F)(F)F [Example 13.06, 2-[[2-[[1-(2-hydroxyethyl)-3-methyl-pyrazol-4-yl]amino]-5-(trifluoromethyl)-4-pyridyl]amino]-N-methyl-benzamide] |
| 4 nM | CONC(=O)c1c(Nc2cc(Nc3cn(C)nc3C)ncc2C(F)(F)F)cccc1OC [Example 14.01, 2-[[2-[(1,3-dimethylpyrazol-4-yl)amino]-5-(trifluoromethyl)-4-pyridyl]amino]-N,6-dimethoxy-benzamide] |
| 2 nM | CONC(=O)c1ccccc1Nc1cc(Nc2cc(C)nn2C)ncc1C(F)(F)F [Example 14.02, 2-[[2-[(2,5-dimethylpyrazol-3-yl)amino]-5-(trifluoromethyl)-4-pyridyl]amino]-N-methoxy-benzamide] |
| 6 nM | CONC(=O)c1c(Nc2cc(Nc3cc(C)nn3C)ncc2C(F)(F)F)cccc1OC [Example 14.03, 2-[[2-[(2,5-dimethylpyrazol-3-yl)amino]-5-(trifluoromethyl)-4-pyridyl]amino]-N,6-dimethoxy-benzamide] |
| 4 nM | CONC(=O)c1ccc(F)cc1Nc1cc(Nc2cn(C)nc2C)ncc1C(F)(F)F [Example 15.01, 2-[[2-[(1,3-dimethylpyrazol-4-yl)amino]-5-(trifluoromethyl)-4-pyridyl]amino]-4-fluoro-N-methoxy-benzamide] |
| 3 nM | CONC(=O)c1ccc(F)cc1Nc1cc(Nc2cc(C)nn2C)ncc1C(F)(F)F [Example 15.02, 2-[[2-[(2,5-dimethylpyrazol-3-yl)amino]-5-(trifluoromethyl)-4-pyridyl]amino]-4-fluoro-N-methoxy-benzamide] |
| 6 nM | CNC(=O)c1ccc(F)cc1Nc1cc(Nc2cc(C)nn2C)ncc1C(F)(F)F [Example 15.03, 2-[[2-[(2,5-dimethylpyrazol-3-yl)amino]-5-(trifluoromethyl)-4-pyridyl]amino]-4-fluoro-N-methyl-benzamide] |
| 24 nM | CNC(=O)c1c(Nc2cc(Nc3c(C)nn(C)c3C)ncc2C(F)(F)F)cccc1OC [Example 15.04, 2-Methoxy-N-methyl-6-[[5-(trifluoromethyl)-2-[(1,3,5-trimethylpyrazol-4-yl)amino]-4-pyridyl]amino]benzamide] |
| 10 nM | CONC(=O)c1c(Nc2cc(Nc3c(C)nn(C)c3C)ncc2C(F)(F)F)cccc1OC [Example 15.05, N,2-dimethoxy-6-[[5-(trifluoromethyl)-2-[(1,3,5-trimethylpyrazol-4-yl)amino]-4-pyridyl]amino]benzamide] |
| 5 nM | CONC(=O)c1ccccc1Nc1cc(Nc2c(C)nn(C)c2C)ncc1C(F)(F)F [Example 15.06, N-methoxy-2-[[5-(trifluoromethyl)-2-[(1,3,5-trimethylpyrazol-4-yl)amino]-4-pyridyl]amino]benzamide] |
| 113 nM | CCONC(=O)c1ccccc1Nc1cc(Nc2cc(C)nn2C)ncc1C(F)(F)F [Example 15.07, 2-[[2-[(2,5-dimethylpyrazol-3-yl)amino]-5-(trifluoromethyl)-4-pyridyl]amino]-N-ethoxy-benzamide] |
| 620 nM | Cc1cc(Nc2cc(Nc3ccccc3C(=O)NOCCO)c(C(F)(F)F)cn2)n(C)n1 [Example 15.08, 2-[[2-[(2,5-dimethylpyrazol-3-yl)amino]-5-(trifluoromethyl)-4-pyridyl]amino]-N-(2-hydroxyethoxy)benzamide] |
| 12 nM | CONC(=O)c1cc(F)ccc1Nc1cc(Nc2cc(C)nn2C)ncc1C(F)(F)F [Example 16.01, 2-[[2-[(2,5-dimethylpyrazol-3-yl)amino]-5-(trifluoromethyl)-4-pyridyl]amino]-5-fluoro-N-methoxy-benzamide] |
| 6 nM | CONC(=O)c1cc(F)ccc1Nc1cc(Nc2cn(C)nc2C)ncc1C(F)(F)F [Example 16.02, 2-[[2-[(1,3-dimethylpyrazol-4-yl)amino]-5-(trifluoromethyl)-4-pyridyl]amino]-5-fluoro-N-methoxy-benzamide] |
